Measured values published in patent US20140351963A1, “MiRNAs Useful to Reduce Lung Cancer Tumorigenesis and Chemotherapy Resistance and Related Compositions and Methods” (Ohio State Innovation Foundation, priority 2011, published 2014).

Tests used:
miR-103 and miR-203 = assay: qRT-PCR of miRNA expression after drug treatment; format: cell-based, human; details: Calu-1; 1 and 3 μM, 24, 48 and 72 h; P<0.05
Experimental: (§1) Real-time PCR was performed using a standard TaqMan PCR Kit protocol on an Applied Biosystems 7900HT Sequence Detection System (Applied Biosystems). The 10 pl PCR reaction included 0.67 pl RT product, 1 pl TaqMan Universal PCR Master Mix (Applied Biosystems), […]. The reactions were incubated in a 96-well plate at 95° C. for […], followed by 40 cycles of 95° C. for 15 s and 60° C. for 1 mM All reactions were run in triplicate. The threshold cycle (CT) is defined as the fractional cycle number at which the fluorescence passes the fixed threshold. The comparative CT method for relative quantization of gene expression (Applied Biosystems) was used to determine miRNA and genes expression levels. The y axis represents the 2^(−ΔCT), or the relative expression of the different miRs and genes. MiRs expression was calculated relative to U44 and U48 rRNA (for microRNAs) and to GAPDH (for genes). Experiments were carried out in triplicate for each data point, and data analysis was performed by using software (Bio-Rad).

[1] = system: miR-30b, miR-30c, miR-221 and miR-222; assay: qRT-PCR of miRNA expression after drug treatment; format: cell-based, human; details: for miR-30b, miR-30c, miR-221 and miR-222 expression after gefitinib: 5 μM or 10 μM gefitinib; for miR-221, miR-222, miR-30b and miR-30c expression after gefitinib: 10 μM gefitinib, 24 h
Experimental: as §1

Calu-1 cells [2] = assay: Cell viability (MTS) and caspase 3/7 assays with gefitinib; format: cell-based, human; details: for Gefitinib sensitivity of transfected cells (caspase-3/7 and viability assays): Calu-1
Experimental: (§2) For detection of caspase 3/7 activity, cells were cultured in 96-well plates, in triplicate, treated with 5 μM, 10 μM or 15 μM gefitinig and analyzed using a Caspase-Glo 3/7 Assay kit (Promega) according to the manufacturer's instructions. Continuous variables are expressed as means±s.d. Cell viability was examined with 3-(4,5dimethylthiazol-2-yl)-2,5-dipheniltetrazolium bromide (MTS)-Cell Titer 96 AQueous One Solution Cell Proliferation Assay (Promega) according to the manufacturer's protocol. Metabolically active cells were detected by adding 20 μl of MTS to each well. After 1 h of incubation, the plates were analyzed in a Multilabel Counter (Bio-Rad Laboratories).

BIM and APAF-1 = assay: Western blot of BIM and APAF-1 protein; format: cell-based, human; details: 24 h; for BIM and APAF-1 protein after gefitinib: 5 μM or 10 μM gefitinib; for APAF-1 and BIM expression after gefitinib: 5 or 10 μM gefitinib
Experimental: (§3) Total proteins from NSCLC were extracted with radioimmunoprecipitation assay (PIRA) buffer ([…], pH 7.5, 1% Triton, 0.1% SDS, 0.1% sodium deoxycholate and 1% Nonidet P40). Sample extract (50 μg) was resolved on 7.5-12% SDS-polyacriylamide gels (PAGS) using a mini-gel apparatus (Bio-Rad Laboratories) and transferred to Hybond-C extra nitrocellulose. Membranes were blocked for 1 h with 5% nonfat dry milk in Tris-buffered saline containing 0.05% Tween 20, incubated overnight with primary antibody, washed and incubated with secondary antibody, and visualized by chemiluminescence.
(§4) The following primary antibodies were used: Apaf-1, Snail, Slug (abcam), Src, Met, Dicer, Vimintin, E-cadherin, Zeb1, Zeb-2 (Santa Cruz), Bim, pErks, total Erks, pAkt, total Akt, GAPDH, Parp (cell signaling, Pkc-ε, (BD transduction lab), β-actin antibody, Fibronectin (Sigma). A secondary anti-rabbit or anti-mouse immunoglobulin G (IgG) antibody peroxidase conjugate (Chemicon) was used.

phosphorylated ERKs = assay: Western blot of ERK phosphorylation after gefitinib; format: cell-based; details: 24 h; for Concentration of phosphorylated ERKs compared to untreated cells: 5 μM or 10 μM gefitinib; for ERKs phosphorylation after gefitinib: 5 or 10 μM gefitinib
Experimental: as §3, §4

[3] = system: miR-21, miR-29a, miR-29c and miR-100; assay: qRT-PCR of miRNA expression after drug treatment; format: cell-based, human; details: 5 and 10 μM gefitinib
Experimental: as §1

PC9 cells = assay: Cell viability (MTS) and caspase 3/7 assays with gefitinib; format: cell-based; details: PC9 EGFR mutant; even at low doses (0.1 μM), 24 h
Experimental: as §2

PKC-ε and SRC = assay: Western blot of PKC-ε and SRC protein; format: cell-based, human
Experimental: as §3, §4

Dicer = assay: Western blot of Dicer; format: cell-based; details: Calu-1
Experimental: as §3, §4

[4] = system: mesenchymal markers and E-cadherin; assay: Expression of epithelial and mesenchymal markers (immunofluorescence, immunoblot, qRT-PCR); format: cell-based, human; details: Calu-1
Experimental: Cells were grown on Lab-Tek II CC2 chamber slides (Nunc), fixed with 4% paraformaldehyde and permeabilized with 0.2% Triton X-100/PBS before blocking with 10% sheep serum (Caltag Laboratories). All the primary antibodies were from Abcam. Secondary antibodies were goat antibodies to mouse or rabbit coupled to Alexa 488 (Invitrogen). F-actin was stained by using a phalloidin reagent (Invitrogen). Cell nuclei were visualized with DAPI (Sigma). Slides were mounted with SlowFade Gold Antifade reagent (Invitrogen).
as §3, §1

AKT/ERKs pathways = assay: Western blot of AKT/ERKs pathways after miRNA enforced expression; format: cell-based; details: A549; miRNA overexpression
Experimental: as §3, §4

A549 cells [5] = assay: A549 xenograft in nude mice with gefitinib treatment; format: in vivo; details: for Tumor growth: nude mice injected s.c. with stably infected A549 cells, 35 days; for Sensitivity to gefitinib-induced apoptosis in vivo: nude mice, stably infected A549 cells, gefitinib 200 mg/kg oral gavage, 2 weeks
Experimental: A549 cells were stably infected with a control miRNA, miR-103 and miR-203 or with control inhibitor of miRNA or a lentiviral inhibitor of miR-221 and miR-30c (SBI). We injected 5×10^6 viable cells subcutaneously into the right flanks of 6-week-old male nude mice (Charles River Breeding Laboratories). Treatment was started 7 d after tumor cell inoculation. […] Tumor size was assessed twice per week using a digital caliper. Tumor volumes were determined by measuring the length (1) and the width (w) of the tumor and calculating the volume (V=lw^2/2). We killed the mice 35 days after injection. Statistical significance between the control and treated mice was evaluated using a Student's t test. Mouse experiments were conducted after approval by the institutional animal care and use committee at Ohio State University.
A549 cells were stably infected with the Human pre-microRNA Expression Construct Lenti-miR expression plasmid containing the full-length miR-103, miR-203 or the anti-miR-221, miR-30c and the GFP gene under the control of two different promoters (System Biosciences). An empty vector was used as control. Pre-miRs expression and control constructs were packaged with pPACKH1 Lentivector Packaging Plasmid mix (System Biosciences) in a 293TN packaging cell line. Viruses were concentrated using PEGit Virus Precipitation Solution, and titers were analyzed using the UltraRapid Lentiviral Titer Kit (System Biosciences). Infected cells were selected by FACS analysis (FACScalibur; BD Bioscience). Infection efficiency >90% was verified by fluorescent microscopy and confirmed by real-time PCR for miRs expression.

A549 cells [6] = assay: Cell-cycle analysis by flow cytometry; format: cell-based
Experimental: (§5) For cell-cycle analysis, cells were plated in 6 cm dishes, transfected as indicated in the figures, trypsinized, washed in PBS, and fixed with ice-cold 70% ethanol while vortexing. Cells were rehydrated in PBS and stained 30 min at RT with propidium iodide ([…] PI, 0.5 mg/ml RNase in PBS) prior to flow-cytometric analysis. Every experiment was repeated 5 times independently, with two replicas for each sample.

NSCLCs = assay: Transwell migration assay; format: cell-based; details: 24 h
Experimental: Transwell insert chambers with an 8-μm porous membrane (Greiner Bio One) were used for the assay. Cells were washed three times with PBS and added to the top chamber in serum-free medium. The bottom chamber was filled with medium containing 10% FBS. Cells were incubated for 24 h at 37° C. in a 5% CO2 humidified incubator. To quantify migrating cells, cells in the top chamber were removed by using a cotton-tipped swab, and the migrated cells were fixed in PBS, 25% glutaraldehyde and stained with crystal violet stain, visualized under a phase-contrast microscope and photographed. Crystalviolet-stained cells were then solubilized in acetic acid and methanol (1:1), and absorbance was measured at 595 nm.

Calu-1 cells [7] = assay: Cell-cycle analysis by flow cytometry; format: cell-based, human
Experimental: as §5

[8] = SU11274 treated Calu-1 cells exposed to different concentrations of gefitinib, 24 h

Cc1[nH]c(/C=C2\C(=O)Nc3ccc(S(=O)(=O)N(C)c4cccc(Cl)c4)cc32)c(C)c1C(=O)N1CCN(C)CC1 [SU11274]
miR-103 and miR-203 expression after SU11274 (miR-103 and miR-203): increased | miR-30b/c and miR-221/miR-222 expression after SU11274 ([1]; Calu-1, 1 and 3 μM, 24, 48 and 72 h): down-regulation | Caspase-3/7 activity on exposure to gefitinib (Calu-1 cells [2]; [8]): increased | Cell viability on exposure to gefitinib (Calu-1 cells [2]; [8]): decreased

COc1cc2ncnc(Nc3ccc(F)c(Cl)c3)c2cc1OCCCN1CCOCC1 [gefitinib]
BIM and APAF-1 protein after gefitinib (BIM and APAF-1; HCC827): increased amounts | APAF-1 and BIM expression after gefitinib (BIM and APAF-1; HCC827GR): did not change | BIM and APAF-1 protein after gefitinib (BIM and APAF-1; PC9): increased amounts | APAF-1 and BIM expression after gefitinib (BIM and APAF-1; PC9GR): did not change | Concentration of phosphorylated ERKs compared to untreated cells (phosphorylated ERKs; HCC827): markedly lower | ERKs phosphorylation after gefitinib (phosphorylated ERKs; HCC827GR): did not change | Concentration of phosphorylated ERKs compared to untreated cells (phosphorylated ERKs; PC9): markedly lower | ERKs phosphorylation after gefitinib (phosphorylated ERKs; PC9GR): did not change | miR-21, miR-29a, miR-29c and miR-100 expression after gefitinib ([3]; HCC827): downregulated | Downregulation of miR-21, miR-29a, miR-29c and miR-100 after gefitinib ([3]; HCC827 GR): not observed | miR-21, miR-29a, miR-29c and miR-100 expression after gefitinib ([3]; PC9): downregulated | Downregulation of miR-21, miR-29a, miR-29c and miR-100 after gefitinib ([3]; PC9 GR): not observed | miR-30b, miR-30c, miR-221 and miR-222 expression after gefitinib ([1]; A549 gefitinib-resistant): does not decrease | miR-30b, miR-30c, miR-221 and miR-222 expression after gefitinib ([1]; Calu-1 gefitinib-resistant): does not decrease | miR-30b, miR-30c, miR-221 and miR-222 expression after gefitinib ([1]; HCC827): downregulation | miR-221, miR-222, miR-30b and miR-30c expression after gefitinib ([1]; HCC827 GR): did not decrease | miR-30b, miR-30c, miR-221 and miR-222 expression after gefitinib ([1]; PC9): downregulation | miR-221, miR-222, miR-30b and miR-30c expression after gefitinib ([1]; PC9 GR): did not decrease | Cell growth / viability relative to untreated controls (PC9 cells): significantly inhibited

miR-103: synthetic miR-103 or lentiviral construct containing full-length miR-103; targets PKC-ε and Dicer (AGCAGCATTGTACAGGGCTATGA; listed as DNA, chemistry not given here)
Concentrations of PKC-ε and SRC protein after enforced miRNA expression (PKC-ε and SRC): clearly reduced | Dicer level (Dicer): marked down-regulation | E-cadherin expression [4]: increased | Expression of mesenchymal markers [4]: downregulation | Phosphorylation of AKT, GSK3β and the ERKs (AKT/ERKs pathways): reduced phosphorylation | Tumor growth (A549 cells [5]): marked inhibition | Sensitivity to gefitinib-induced apoptosis in vivo (A549 cells [5]): increased sensitivity | Cell cycle distribution (G1 fraction; S and G2-M phases) (A549 cells [6]): increased G1 cell fraction | Gefitinib sensitivity of transfected cells (caspase-3/7 and viability assays) (Calu-1 cells [2]): increased the sensitivity | Migration reduced compared to controls (NSCLCs): about 60% | Cell cycle distribution (G1 fraction; S and G2-M phases) (Calu-1 cells [7]): increased G1 cell fraction

miR-203: synthetic miR-203 or lentiviral construct containing full-length miR-203; targets SRC (CTAGTGGTCCTAAACATTTCAC; listed as DNA, chemistry not given here)
Concentrations of PKC-ε and SRC protein after enforced miRNA expression (PKC-ε and SRC): clearly reduced | E-cadherin expression [4]: increased | Expression of mesenchymal markers [4]: downregulation | Phosphorylation of AKT, GSK3β and the ERKs (AKT/ERKs pathways): reduced phosphorylation | Tumor growth (A549 cells [5]): marked inhibition | Sensitivity to gefitinib-induced apoptosis in vivo (A549 cells [5]): increased sensitivity | Cell cycle distribution (G1 fraction; S and G2-M phases) (A549 cells [6]): increased G1 cell fraction | Gefitinib sensitivity of transfected cells (caspase-3/7 and viability assays) (Calu-1 cells [2]): increased the sensitivity | Migration reduced compared to controls (NSCLCs): about 60% | Cell cycle distribution (G1 fraction; S and G2-M phases) (Calu-1 cells [7]): increased G1 cell fraction
